The target in one assay is D(2) dopamine receptor (Homo sapiens, UniProt P14416). The experiment in a line: Displacement of [3H]spiperone from human cloned dopamine receptor D2 long expressed in CHO cells. The assay is classed as cell-based.
The target of a further assay is D(3) dopamine receptor (Homo sapiens, UniProt P35462). The experiment in a line: biochemical.
A further assay addresses T1, D(4) dopamine receptor (Homo sapiens, UniProt P21917).
T1 sequence (P21917 whole entry): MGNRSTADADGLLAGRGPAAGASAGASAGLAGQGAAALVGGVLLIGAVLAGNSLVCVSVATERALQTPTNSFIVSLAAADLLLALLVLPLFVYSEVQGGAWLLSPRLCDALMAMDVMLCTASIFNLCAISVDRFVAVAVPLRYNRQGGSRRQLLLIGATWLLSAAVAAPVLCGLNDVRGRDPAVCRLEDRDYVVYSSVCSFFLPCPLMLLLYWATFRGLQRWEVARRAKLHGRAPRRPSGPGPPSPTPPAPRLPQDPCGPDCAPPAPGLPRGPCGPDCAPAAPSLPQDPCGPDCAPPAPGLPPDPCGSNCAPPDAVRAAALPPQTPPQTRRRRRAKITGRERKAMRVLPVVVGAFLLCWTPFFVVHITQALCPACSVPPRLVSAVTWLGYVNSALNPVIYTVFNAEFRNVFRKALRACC
The assay is described as follows: Displacement of [3H]YM-09151-2 from human cloned dopamine D4 receptor expressed in CHO cells. Background: Displacement assays read how much labelled ligand stays bound in the presence of the test substance.

Sequence of D(3) dopamine receptor (P35462 whole entry): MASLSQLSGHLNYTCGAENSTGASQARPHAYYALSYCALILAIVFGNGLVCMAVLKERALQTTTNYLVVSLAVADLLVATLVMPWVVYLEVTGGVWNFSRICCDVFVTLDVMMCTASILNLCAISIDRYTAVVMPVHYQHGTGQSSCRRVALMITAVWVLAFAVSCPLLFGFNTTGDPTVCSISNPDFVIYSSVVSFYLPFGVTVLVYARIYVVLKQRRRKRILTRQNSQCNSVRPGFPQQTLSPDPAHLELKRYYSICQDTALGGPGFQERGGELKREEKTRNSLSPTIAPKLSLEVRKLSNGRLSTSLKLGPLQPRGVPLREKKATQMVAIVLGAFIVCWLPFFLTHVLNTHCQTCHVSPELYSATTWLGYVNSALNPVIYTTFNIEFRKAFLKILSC
Sequence of D(2) dopamine receptor (P14416 whole entry): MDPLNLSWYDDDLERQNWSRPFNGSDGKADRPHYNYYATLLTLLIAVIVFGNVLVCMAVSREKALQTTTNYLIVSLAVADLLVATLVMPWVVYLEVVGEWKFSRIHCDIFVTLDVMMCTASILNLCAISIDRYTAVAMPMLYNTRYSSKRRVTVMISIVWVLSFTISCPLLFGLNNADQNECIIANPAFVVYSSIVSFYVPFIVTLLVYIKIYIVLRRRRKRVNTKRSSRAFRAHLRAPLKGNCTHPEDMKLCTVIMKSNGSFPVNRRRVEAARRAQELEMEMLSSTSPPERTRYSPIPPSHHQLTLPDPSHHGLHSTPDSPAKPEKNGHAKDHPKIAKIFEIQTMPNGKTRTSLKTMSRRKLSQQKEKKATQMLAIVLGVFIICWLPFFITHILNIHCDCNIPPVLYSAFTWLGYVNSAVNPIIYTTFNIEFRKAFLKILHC
Description for D(3) dopamine receptor: Displacement of [3H]YM-09151-2 from human cloned dopamine D3 receptor expressed in CHO cells

Turning to `CCOc1ccccc1N1CCN(CCC[C@H]2CC(c3ccc(OC)c(OC)c3)=NO2)CC1`, the figures for the inhibition constant (Ki) on D(2) dopamine receptor, at D(3) dopamine receptor and on D(4) dopamine receptor were 70 nM, 5.1 nM and 225 nM, respectively.
On to `COc1ccc(C2=NO[C@H](CCCN3CCN(C(c4ccc(F)cc4)c4ccc(F)cc4)CC3)C2)cc1OC`, for which the Ki (as a rule, the equilibrium dissociation constant of an inhibitor or competing ligand from its target) was determined as 80 nM on D(2) dopamine receptor, 2.1 nM on D(3) dopamine receptor and 426 nM on D(4) dopamine receptor.
For `COc1ccc(C2=NO[C@@H](CCCN3CCN(C(c4ccc(F)cc4)c4ccc(F)cc4)CC3)C2)cc1OC`, in that order: 400 nM, 20 nM and 483 nM.
As for `CCOc1ccccc1N1CCN(CCC[C@@H]2CC(c3ccc(OC)c(OC)c3)=NO2)CC1`, the values for the Ki on D(2) dopamine receptor, at D(3) dopamine receptor and at D(4) dopamine receptor were 46 nM, 2.1 nM and 507 nM, respectively.

(Values after ChEMBL document CHEMBL1147208, “Asymmetric synthesis of chiral piperazinylpropylisoxazoline ligands for dopamine receptors” (Eur J Med Chem, 2007).)
